This assay concerns the target T1, Estrogen receptor (Homo sapiens, UniProt P03372).
T1 sequence (P03372 whole entry): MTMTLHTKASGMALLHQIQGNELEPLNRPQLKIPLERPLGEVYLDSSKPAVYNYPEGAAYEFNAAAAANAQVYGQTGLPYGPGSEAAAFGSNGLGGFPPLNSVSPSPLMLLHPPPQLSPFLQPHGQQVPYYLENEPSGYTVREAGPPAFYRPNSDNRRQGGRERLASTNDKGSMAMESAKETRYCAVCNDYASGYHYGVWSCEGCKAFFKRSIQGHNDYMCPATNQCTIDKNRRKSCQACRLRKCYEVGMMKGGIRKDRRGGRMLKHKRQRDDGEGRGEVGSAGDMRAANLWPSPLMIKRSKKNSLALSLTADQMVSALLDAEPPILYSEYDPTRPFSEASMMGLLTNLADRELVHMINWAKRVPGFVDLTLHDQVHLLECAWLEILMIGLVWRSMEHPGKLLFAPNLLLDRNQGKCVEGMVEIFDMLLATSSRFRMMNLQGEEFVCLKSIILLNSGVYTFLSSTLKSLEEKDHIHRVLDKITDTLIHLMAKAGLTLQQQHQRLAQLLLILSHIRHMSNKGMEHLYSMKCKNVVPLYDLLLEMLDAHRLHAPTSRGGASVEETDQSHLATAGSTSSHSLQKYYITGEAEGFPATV
Briefly: potentiators of ERα–SRC-1 coactivator binding, dose response, biochemical, TR-FRET, ERα LBD (AID 737). (In general: In TR-FRET formats the signal depends on donor and acceptor labels being close together.)
Regarding `Cc1ccc(-c2n[nH]c(=S)n2NC=CCc2ccccc2[N+](=O)[O-])cc1`, the 50% effective concentration (EC50) (usually the concentration that produces a half-maximal response) was 6.52 µM.
As for `O=C1c2ccccc2C(=O)C1c1ccnc2ccccc12` [2-(1H-quinolin-4-ylidene)indane-1,3-quinone], the EC50 amounted to 6.74 µM.
As for `CCc1[nH]nc2c1C(c1cccc(OC(=O)N3CCOCC3)c1)C(C#N)C(=N)O2` (stereo unspecified) [3-(6-amino-5-cyano-3-ethyl-1,4-dihydropyrano[2,3-c]pyrazol-4-yl)phenyl morpholine-4-carboxylate], the EC50 was determined as 6.39 µM.
The same measure for `CCn1c(=NC(=O)c2ccc(-n3c(O)ccc3O)cc2)sc2c(OC)ccc(OC)c21` [4-[2,5-bis(oxidanylidene)pyrrolidin-1-yl]-N-(3-ethyl-4,7-dimethoxy-1,3-benzothiazol-2-ylidene)benzamide]: 7.94 µM.
Then `CCOc1ccc(Cc2sc(Nc3ccccn3)nc2O)cc1` [5-(4-Ethoxy-benzyl)-2-[(Z)-pyridin-2-ylimino]-thiazolidin-4-one], with 25.1 µM; and `CCOc1ccccc1C1c2c(-c3ccccc3)noc2N=C(N)C1C#N` (stereo unspecified) [6-amino-4-(2-ethoxyphenyl)-3-phenyl-2,4-dihydroisoxazolo[5,4-b]pyridine-5-carbonitrile], with 17.5 µM.

These data come from BindingDB's records for doi:10.7270/Q2F47MJ9 (Emory University, 2007).
